Test results as given in patent US20230276836A1, “ORAL RETENTION COMPOSITION” (BIZEN CHEMICAL CO., LTD., priority 2020, published 2023).

Assay: Reactivity index (RI) between compound and carrageenan, viscosity change (Test Examples 2, 10)
Assay type: physicochemical
Conditions: uncoated compound, 10 ppm in 1 mass% carrageenan
Description: The measurement device, measurement, control sample, and D0 were the same as those in Test Example 1. An aqueous methanol solution containing a polyphenolic compound was prepared by dissolving the polyphenolic compound in an aqueous methanol solution (methanol concentration: 50 mass%) and diluted to 1 mg/mL in a measuring cylinder. 200 µL of this solution was added to 20 g of the same solution as the control sample (aqueous solution of 1 mass% carrageenan) and homogeneously mixed. The obtained solution was determined to be an uncoated sample. Additionally, a solution was prepared in the same manner as the uncoated sample, except that a 50% (v/v) aqueous methanol solution was used instead of the aqueous methanol solution containing a polyphenolic compound and determined to be a methanol sample. Evaluation Method: The progress distance (mm) of the control sample is D0. The progress distance (mm) of the uncoated sample is D1. The progress distance (mm) of the methanol sample is D1M. The reactivity index (RI) between a polyphenolic compound and carrageenan was calculated according to the following formula.
In this test system, the addition of an aqueous solution causes some decrease in viscosity due to a dilution effect. Thus, the determination method described above was used to detect the changes in viscosity due to the effect of a polyphenolic compound. Note that ±10% of the RI value was assumed to be within the margin of error (i.e., an RI value of 0.9 to 1.1 was assumed to be within the margin of error).
In the same manner as in Test Example 2, epigallocatechin gallate (polyphenolic compound), syringin and eleutheroside E (lignan compounds), and spermidine (basic substance) were prepared, and the effects of these substances on the viscosity of carrageenan were measured, and their reactivity was evaluated. Note that spermidine was dissolved in purified water, and the prepared aqueous solution was used as a sample.

[1] = Test Example 10, spermidine dissolved in purified water
[2] = Test Example 2, vs methanol sample, 1.1<RI = viscosity decreased

SMILES	RI [1]	RI [2]
NCCCCNCCCN [Comparative Example 15, Spermidine]	1.5	–
O=C(OC[C@H]1O[C@@H](OC(=O)c2cc(O)c(O)c(OC(=O)c3cc(O)c(O)c(O)c3)c2)[C@H](OC(=O)c2cc(O)c(O)c(OC(=O)c3cc(O)c(O)c(O)c3)c2)[C@@H](OC(=O)c2cc(O)c(O)c(OC(=O)c3cc(O)c(O)c(O)c3)c2)[C@@H]1OC(=O)c1cc(O)c(O)c(OC(=O)c2cc(O)c(O)c(O)c2)c1)c1cc(O)c(O)c(OC(=O)c2cc(O)c(O)c(O)c2)c1 [Comparative Example 4, Tannic Acid]	–	2.5
COc1cc(/C=C/CO)cc(OC)c1O[C@@H]1O[C@H](CO)[C@@H](O)[C@H](O)[C@H]1O [Comparative Example 13, Syringin]	2.3	–
O=c1c(O)c(-c2ccc(O)c(O)c2)oc2cc(O)cc(O)c12 [Comparative Example 5, Quercetin]	–	2.2
O=C(O[C@@H]1Cc2c(O)cc(O)cc2O[C@@H]1c1cc(O)c(O)c(O)c1)c1cc(O)c(O)c(O)c1 [Comparative Example 12, Epigallocatechin Gallate]	4.4	–
COc1cc([C@H]2OC[C@@H]3[C@@H]2CO[C@H]3c2cc(OC)c(O[C@@H]3O[C@H](CO)[C@@H](O)[C@H](O)[C@H]3O)c(OC)c2)cc(OC)c1O[C@@H]1O[C@H](CO)[C@@H](O)[C@H](O)[C@H]1O [Comparative Example 14, Eleutheroside E]	2.1	–
Oc1ccc(C=Cc2cc(O)cc(O)c2)cc1 [Comparative Example 6, Resveratrol]	–	3.5
O=C(/C=C/c1ccc(O)c(O)c1)O[C@@H]1C[C@](O)(C(=O)O)C[C@@H](O)[C@H]1O [Comparative Example 3, Chlorogenic Acid]	–	4.1
